Assay results from ChEMBL document CHEMBL1201861, “Genomics of Drug Sensitity in Cancer screening data, Wellcome Trust Sanger Institute”.

What was measured:
Experiment in all cases: cells
Settings in all cases: Homo sapiens
RXF 393 = format: functional, cell-based;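 also: growth inhibition of human RXF 393 cells, read out with a cell viability assay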
Description: SANGER: Inhibition of human RXF393 cell growth in a cell viability assay.

EC-GI-10 = format: functional, cell-based
Description: SANGER: Inhibition of human EC-GI-10 cell growth in a cell viability assay.

EW-13 = format: functional, cell-based;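 also: growth inhibition of EW-13 cells, read out with a cell viability assay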
Description: SANGER: Inhibition of human EW-13 cell growth in a cell viability assay.

SW982 = format: functional, cell-based;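 also: growth inhibition of SW982 cells, read out with a cell viability assay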
Description: SANGER: Inhibition of human SW982 cell growth in a cell viability assay.

CAS-1 = format: functional, cell-based;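 also: growth inhibition of CAS-1 cells, measured with a cell viability assay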
Description: SANGER: Inhibition of human CAS-1 cell growth in a cell viability assay.

GB-1 = format: functional, cell-based;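 also: growth of GB-1 cells judged by a viability assay, IC50 marks the concentration inhibiting growth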
Description: SANGER: Inhibition of human GB-1 cell growth in a cell viability assay.

SH-4 = format: functional, cell-based;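 also: growth inhibition of SH-4 cells, read out with a cell viability assay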
Description: SANGER: Inhibition of human SH-4 cell growth in a cell viability assay.

OVCAR-4 = format: functional, cell-based;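 also: growth inhibition of human OVCAR-4 cells, measured with a cell viability assay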
Description: SANGER: Inhibition of human OVCAR-4 cell growth in a cell viability assay.

HEL = format: functional, cell-based;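 also: growth inhibition of HEL cells, read out with a cell viability assay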
Description: SANGER: Inhibition of human HEL cell growth in a cell viability assay.

NCI-H69 = format: functional, cell-based;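 also: growth inhibition of the cell line, read out with a cell viability assay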
Description: SANGER: Inhibition of human NCI-H69 cell growth in a cell viability assay.

LU-139 = format: functional, cell-based
Description: SANGER: Inhibition of human LU-139 cell growth in a cell viability assay.

LAN-6 = format: functional, cell-based;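 also: growth inhibition of LAN-6 cells, determined with a cell viability assay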
Description: SANGER: Inhibition of human LAN-6 cell growth in a cell viability assay.

L-363 = format: functional, cell-based
Description: SANGER: Inhibition of human L-363 cell growth in a cell viability assay.

EKVX = format: functional, cell-based;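 also: growth inhibition of human EKVX cells, read out with a cell viability assay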
Description: SANGER: Inhibition of human EKVX cell growth in a cell viability assay.

RCC10RGB = format: functional, cell-based;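 also: growth inhibition of human RCC10RGB cells, read out by a cell viability assay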
Description: SANGER: Inhibition of human RCC10RGB cell growth in a cell viability assay.

TGBC1TKB = format: functional, cell-based;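 also: growth inhibition of TGBC1TKB cells, read out by a cell viability assay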
Description: SANGER: Inhibition of human TGBC1TKB cell growth in a cell viability assay.

SK-N-FI = format: functional, cell-based;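 also: cell viability assay measuring growth inhibition of human SK-N-FI cells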
Description: SANGER: Inhibition of human SK-N-FI cell growth in a cell viability assay.

IST-MES1 = format: functional, cell-based;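 also: growth inhibition of IST-MES1 cells, measured with a cell viability assay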
Description: SANGER: Inhibition of human IST-MES1 cell growth in a cell viability assay.

SK-MEL-2 = format: functional, cell-based;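 also: growth inhibition of human SK-MEL-2 cells measured with a cell viability assay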
Description: SANGER: Inhibition of human SK-MEL-2 cell growth in a cell viability assay.

NCI-H1092 = format: functional, cell-based;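 also: cell growth inhibition measured with a cell viability assay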
Description: SANGER: Inhibition of human NCI-H1092 cell growth in a cell viability assay.

KURAMOCHI = format: functional, cell-based;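 also: growth inhibition of KURAMOCHI cells, read out with a cell viability assay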
Description: SANGER: Inhibition of human KURAMOCHI cell growth in a cell viability assay.

LB2518-MEL = format: functional, cell-based;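 also: growth inhibition of human LB2518-MEL cells, measured with a cell viability assay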
Description: SANGER: Inhibition of human LB2518-MEL cell growth in a cell viability assay.

SF-268 = format: functional, cell-based;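 also: growth inhibition of SF-268 cells determined with a cell viability assay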
Description: SANGER: Inhibition of human SF268 cell growth in a cell viability assay.

no-11 = format: functional, cell-based;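 also: growth inhibition of human NO-11 cells, read out with a cell viability assay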
Description: SANGER: Inhibition of human no-11 cell growth in a cell viability assay.

SK-MEL-1 = format: functional, cell-based;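 also: growth inhibition of human SK-MEL-1 cells, read out by a cell viability assay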
Description: SANGER: Inhibition of human SK-MEL-1 cell growth in a cell viability assay.

KGN = format: functional, cell-based;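 also: growth inhibition of KGN cells, read out with a cell viability assay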
Description: SANGER: Inhibition of human KGN cell growth in a cell viability assay.

NH-12 = format: functional, cell-based;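 also: growth inhibition of NH-12 cells, read out with a cell viability assay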
Description: SANGER: Inhibition of human NH-12 cell growth in a cell viability assay.

ATN-1 = format: functional, cell-based;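 also: growth inhibition of human ATN-1 cells, read out with a cell viability assay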
Description: SANGER: Inhibition of human ATN-1 cell growth in a cell viability assay.

TE-1 = format: functional, cell-based
Description: SANGER: Inhibition of human TE-1 cell growth in a cell viability assay.

NCI-H446 = format: functional, cell-based;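 also: growth inhibition of NCI-H446 cells determined by a cell viability assay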
Description: SANGER: Inhibition of human NCI-H446 cell growth in a cell viability assay.

LB2241-RCC = format: functional, cell-based;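 also: cell viability assay measuring how strongly the cultured human renal carcinoma line is prevented from growing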
Description: SANGER: Inhibition of human LB2241-RCC cell growth in a cell viability assay.

PSN1 = format: functional, cell-based;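 also: suppression of growth of human PSN1 cells, read out by a cell viability assay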
Description: SANGER: Inhibition of human PSN1 cell growth in a cell viability assay.

NCI-H23 = format: functional, cell-based;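 also: cell viability assay measuring growth inhibition of NCI-H23 cells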
Description: SANGER: Inhibition of human NCI-H23 cell growth in a cell viability assay.

LU-134-A = format: functional, cell-based
Description: SANGER: Inhibition of human LU-134-A cell growth in a cell viability assay.

NCI-H526 = format: functional, cell-based;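 also: growth inhibition of the human NCI-H526 cell line, measured by a cell viability assay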
Description: SANGER: Inhibition of human NCI-H526 cell growth in a cell viability assay.

NCI-H720 = format: functional, cell-based;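 also: growth inhibition of human NCI-H720 cells determined by a cell viability assay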
Description: SANGER: Inhibition of human NCI-H720 cell growth in a cell viability assay.

ES6 = format: functional, cell-based;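 also: growth inhibition of human ES6 cells, read out with a cell viability assay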
Description: SANGER: Inhibition of human ES6 cell growth in a cell viability assay.

MV4-11 = format: functional, cell-based, MV-4-11;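 also: cell viability readout measuring growth inhibition of human MV-4-11 cells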
Description: SANGER: Inhibition of human MV-4-11 cell growth in a cell viability assay.

NCI-H1355 = format: functional, cell-based;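 also: growth inhibition of human NCI-H1355 cells, read out by a cell viability assay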
Description: SANGER: Inhibition of human NCI-H1355 cell growth in a cell viability assay.

NCI-H1838 = format: functional, cell-based;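 also: growth inhibition of NCI-H1838 cells, determined with a cell viability readout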
Description: SANGER: Inhibition of human NCI-H1838 cell growth in a cell viability assay.

HH = format: functional, cell-based
Description: SANGER: Inhibition of human HH cell growth in a cell viability assay.

NKM-1 = format: functional, cell-based;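 also: growth inhibition of NKM-1 cells, read out with a cell viability assay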
Description: SANGER: Inhibition of human NKM-1 cell growth in a cell viability assay.

LS-123 = format: functional, cell-based
Description: SANGER: Inhibition of human LS-123 cell growth in a cell viability assay.

P30-OHK = format: functional, cell-based;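 also: growth inhibition of the P30-OHK cell line, read out with a cell viability assay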
Description: SANGER: Inhibition of human P30-OHK cell growth in a cell viability assay.

MN-60 = format: functional, cell-based;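 also: growth inhibition of the MN-60 cell line, determined with a cell viability assay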
Description: SANGER: Inhibition of human MN-60 cell growth in a cell viability assay.

NCI-H1770 = format: functional, cell-based;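 also: growth inhibition of NCI-H1770 cells determined with a viability readout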
Description: SANGER: Inhibition of human NCI-H1770 cell growth in a cell viability assay.

Lu-65 = format: functional, cell-based;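 also: growth inhibition of Lu-65 cancer cells, read out by a cell viability assay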
Description: SANGER: Inhibition of human LU-65 cell growth in a cell viability assay.

SJSA-1 = format: functional, cell-based;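 also: growth inhibition of human SJSA-1 cells, read out through a cell viability measurement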
Description: SANGER: Inhibition of human SJSA-1 cell growth in a cell viability assay.

KARPAS-299 = format: functional, cell-based
Description: SANGER: Inhibition of human KARPAS-299 cell growth in a cell viability assay.

A498 = format: functional, cell-based;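 also: growth inhibition of human A498 cells, read out with a cell viability assay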
Description: SANGER: Inhibition of human A498 cell growth in a cell viability assay.

COLO-320-HSR = format: functional, cell-based;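 also: growth inhibition of COLO-320-HSR cells, determined with a cell viability assay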
Description: SANGER: Inhibition of human COLO-320-HSR cell growth in a cell viability assay.

KG-1 = format: functional, cell-based;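 also: growth inhibition of KG-1 cells, read out by a cell viability assay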
Description: SANGER: Inhibition of human KG-1 cell growth in a cell viability assay.

TE-11 = format: functional, cell-based;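 also: growth inhibition of human TE-11 cells, read out by a cell viability assay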
Description: SANGER: Inhibition of human TE-11 cell growth in a cell viability assay.

EW-11 = format: functional, cell-based;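 also: growth inhibition of human EW-11 cells, measured with a cell viability assay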
Description: SANGER: Inhibition of human EW-11 cell growth in a cell viability assay.

SCH = format: functional, cell-based;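 also: growth inhibition of human SCH cells, read out in a cell viability assay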
Description: SANGER: Inhibition of human SCH cell growth in a cell viability assay.

Measured: IC50

Cc1[nH]c(/C=C2\C(=O)Nc3ccc(S(=O)(=O)Cc4c(Cl)cccc4Cl)cc32)c(C)c1C(=O)N1CCC[C@@H]1CN1CCCC1 [PHA-665752]
> 2000 nM: SW982 | SH-4 | LAN-6 | LB2518-MEL | SK-MEL-1 | PSN1 | ES6 | NKM-1 | SJSA-1
1290 nM: MV4-11
0.157 µM: LB2241-RCC
not listed: SCH
> 2 µM: all other assays above

CCNc1cc(N[C@H]2CC[C@@H](O)CC2)nc(Nc2ccc3c(ccn3Cc3ccccc3)c2)n1
> 5120 nM: SW982 | LAN-6 | LB2518-MEL | SK-MEL-1 | PSN1 | ES6 | MV4-11 | NKM-1 | SJSA-1
3310 nM: SH-4
5.08 µM: NCI-H1770
> 5.12 µM: all other assays above

CCn1c(-c2nonc2N)nc2cnc(Oc3cccc(NC(=O)c4ccc(OCCN5CCOCC5)cc4)c3)cc21 [GSK-269962A]
1710 nM: LB2518-MEL
1050 nM: SJSA-1
0.847 µM: CAS-1
> 2500 nM: SH-4 | LAN-6 | SK-MEL-1 | PSN1 | NKM-1
0.567 µM: KGN
0.393 µM: RXF 393
247 nM: ES6
139 nM: MV4-11
2.45 µM: NCI-H720
not listed: SW982 | TE-11
> 2.5 µM: all other assays above

COc1cc(C)c(Sc2cnc(NC(=O)c3ccc(CNC(C)C(C)(C)C)cc3)s2)cc1C(=O)N1CCN(C(C)=O)CC1 (centres undefined)
2510 nM: PSN1
2490 nM: SH-4
9.62 µM: OVCAR-4
2120 nM: ES6
4.94 µM: L-363
9.12 µM: GB-1
7630 nM: SJSA-1
7290 nM: LAN-6
5880 nM: MV4-11
6.22 µM: NCI-H1355
9.51 µM: ATN-1
2910 nM: SW982
10100 nM: NKM-1
> 10200 nM: LB2518-MEL | SK-MEL-1
> 10.2 µM: all other assays above

Cc1ccc(NC(=O)c2cccc(C(C)(C)C#N)c2)cc1Nc1ccc2ncn(C)c(=O)c2c1
4.76 nM: LB2518-MEL
3.81 µM: KG-1
3.22 µM: SK-MEL-2
1430 nM: SJSA-1
735 nM: NKM-1
< 15.6 nM: SH-4
27.4 nM: PSN1
384 nM: SK-MEL-1
1420 nM: MV4-11
> 4000 nM: ES6
682 nM: LAN-6
not listed: SW982 | A498 | TE-11
> 4 µM: all other assays above
